“And” between values parts separate entries of the source, which are not always exact repeats. Identical values can stand only once. Like-named read-outs stand apart in the source and are kept apart here.
Assays:
MC3T3-E1 cells = assay: Bioactivity of released PTH(1-34): intracellular cAMP; type: cell-based; conditions: PTH(1-34) released from microspheres at 1 and 3 days; 6 hrs incubation
Protocol: Activity of controlled released PTH(1-34) was determined by measuring cAMP contents in cells treated with released PTH(1-34). For these experiments, the MC3T3-E1 was cultured in α-MEM supplemented with 10% fetal bovine serum and […] ascorbic acid. The cells were seeded onto 24-well plates at a density of 50,000 cells/well. After 6 hrs of incubation with released PTH (1-34) from microspheres, the cells were lysed directly in the medium by adding 0.1 N HCl and 0.5 mM isobutylmethylxanthine to protect the produced cAMP. Intracellular cAMP was measured using a commercially available ELISA kit (Endogen/Pierce, Rockford, Ill.) following the manufacturer's instructions.

[1] = system: papain-induced osteoarthritis, articular cartilage; assay: Papain-induced osteoarthritis, histology and immunohistochemistry of articular cartilage; type: in vivo, rat
Protocol: The animal experiments were approved by the Animal Care and Use Committee of Kaohsiung Medical University. Fifty-four 12-week-old male Sprague-Dawley rats (250-300 gm) were purchased from BioLASCO Taiwan and housed under standard laboratory conditions (temperature 24° C., 12-hour light-dark cycle) with food and water ad libitum. The animals were acclimatized to the laboratory environment for 1 week before the experiments.
Each left knee, which served as the contralateral control joint, received the vehicle without PTH treatment or OA-induction. The right knees were the study joints. Rats were divided into five groups: Non-OA+PTH [PTH(1-34) treatment without OA-induction] (n=6), Non-OA+PTH/PLGA [PTH/PLGA microspheres treatment without OA-induction] (n=6), OA [OA-induction without PTH(1-34) treatment] (n=6), OA+PTH [PTH(1-34) treatment followed by OA-induction] (n=6), and OA+PTH/PLGA [PTH/PLGA microspheres treatment followed by OA-induction] (n=6). OA was induced in the right knees of rats in the OA and OA+PTH groups with intra-articular injections of 20 μl of 4% papain solution and 20 μl of 0.03 M cystein. The injections were given with a 26-gauge needle via the patellar tendon on days 1, 4, and 7 of the experiment (13). In the OA+PTH group, after OA-induction, the right knees were injected intra-articularly with 40 μl of 10 nM PTH(1-34) every three days until sacrifice. In the PTH group, the same PTH(1-34) treatment was performed but without OA-induction. In the OA+PTH/PLGA group, after OA-induction, the right knees were injected intra-articularly with 0.4 mg of PTH/PLGA microspheres at 1st and 15th day. The rats were sacrificed with an overdose of CO2-inhaled at the same time point at 5 weeks.
After sacrifice, the knees of each rat were harvested, and the tibia plateaus with articular cartilage were collected and fixed with 10% neutral buffered formalin prior to histological preparation. The samples were then decalcified in 10% formic acid/PBS. The decalcified tibia articular samples were paraffin embedded, and 5 μm microsections in the coronary plane were prepared. GAG was stained with Safranin-O-Fast-Green (1% Safranin-O counter-stained with 0.75% hematoxylin and then 1% fast green) (Sigma, St. Louis, Mo.). Localized type II Collagen and type X collagen were immuno-stained.
GAG was stained red by Safarinin-O, and the total and red-stained areas in the articular cartilage of each proximal tibia were measured using the Image-Pro plus 5.0 software (FIG. 6C) (Media Cybernetics Inc. MD, USA). The ratio of red stained area to total area (red/total) in each group was calculated.
The tibia articular sections were re-hydrated, and the endogenous peroxidase in tissues was blocked with 3% hydrogen peroxide. Samples were digested by enzymes for epitope retrieval before incubation with primary antibodies. The method for enzyme digestion was modified from a previous report (20). The optimal condition for the enzyme digestion for type II collagen immuno-staining was a mixture of 2.5% hyluronidase and 1 mg/ml pronase in PBS (pH 7.4) (Sigma, St. Louis, Mo.) at 37° C. for 1 hour. For type X collagen immuno-staining the optimal condition was 0.1 U/ml chondroitinase ABC (Sigma, St. Louis, Mo.) for 1 hour and pepsin 1 mg/ml in tris-HCl (pH 3.0) at 37° C. for 15 minutes. […]

[2] = oral administration, in comparison to subcutaneous administration; cited from earlier work
[3] = pulmonary route, cited from earlier work
[4] = system: papain induced osteoarthritis; conditions: injection once in three days for 5 weeks; cited from earlier work
[5] = Non-OA study joints (no OA-induction)
[6] = OA-induced study joints, intra-articular, 5 weeks

CC[C@H](C)[C@H](NC(=O)[C@H](CCC(=O)O)NC(=O)[C@H](CO)NC(=O)[C@@H](NC(=O)[C@@H](N)CO)C(C)C)C(=O)N[C@@H](CCC(N)=O)C(=O)N[C@@H](CC(C)C)C(=O)N[C@@H](CCSC)C(=O)N[C@@H](Cc1cnc[nH]1)C(=O)N[C@@H](CC(N)=O)C(=O)N[C@@H](CC(C)C)C(=O)NCC(=O)N[C@@H](CCCCN)C(=O)N[C@@H](Cc1cnc[nH]1)C(=O)N[C@@H](CC(C)C)C(=O)N[C@@H](CC(N)=O)C(=O)N[C@@H](CO)C(=O)N[C@@H](CCSC)C(=O)N[C@@H](CCC(=O)O)C(=O)N[C@@H](CCCN=C(N)N)C(=O)N[C@H](C(=O)N[C@@H](CCC(=O)O)C(=O)N[C@@H](Cc1c[nH]c2ccccc12)C(=O)N[C@@H](CC(C)C)C(=O)N[C@@H](CCCN=C(N)N)C(=O)N[C@@H](CCCCN)C(=O)N[C@@H](CCCCN)C(=O)N[C@@H](CC(C)C)C(=O)N[C@@H](CCC(N)=O)C(=O)N[C@@H](CC(=O)O)C(=O)N[C@H](C(=O)N[C@@H](Cc1cnc[nH]1)C(=O)N[C@@H](CC(N)=O)C(=O)N[C@@H](Cc1ccccc1)C(=O)O)C(C)C)C(C)C [PTH(1-34)]
cAMP production (MC3T3-E1 cells): increased production of cAMP
Safranin O-stained area to total area (red:total, GAG) vs contralateral control [1, 5]: not significantly different
type II collagen stained area to total area vs contralateral control [1, 5]: not significantly different
type X collagen-stained chondrocytes vs OA group ([1]; OA-induced study joints, after 5 weeks of treatment): less positive stained cells
Safranin O-stained area to total area (red:total, GAG) vs contralateral control [1, 6]: not significantly different from the contralateral control cartilage
type II collagen stained area to total area (brown:total) vs contralateral control [1, 6]: not significantly different from the contralateral control cartilage
bioavailability [2]: 5% and 2.1%
bioavailability ([3]; inhalation of dry powders): 34%
bioavailability ([3]; intratracheal instillation): 40%
effective dose [4]: 10^−8 M
